Like-named read-outs stand apart in the source and are kept apart here. Values belong to the compound of their own block, whether it stands above or below them.
Assays:
Assay type in all cases: biochemical
fibrinogen [1] = molecular target: T1, fibrinogen (Homo sapiens, UniProt P02671+P02675+P02679); experiment: FIFTA of chloramine-T oxidized / EDTA-supplemented plasma
T1 construct: pooled patient plasma (P-Pool, n=32 single plasmas); from tissue; host or cells: pooled citrated patient plasma (P-Pool, Fbgen-Pool-Plasma)
T1 sequence (P02671 20-644 isoform P02671-2 limits assumed): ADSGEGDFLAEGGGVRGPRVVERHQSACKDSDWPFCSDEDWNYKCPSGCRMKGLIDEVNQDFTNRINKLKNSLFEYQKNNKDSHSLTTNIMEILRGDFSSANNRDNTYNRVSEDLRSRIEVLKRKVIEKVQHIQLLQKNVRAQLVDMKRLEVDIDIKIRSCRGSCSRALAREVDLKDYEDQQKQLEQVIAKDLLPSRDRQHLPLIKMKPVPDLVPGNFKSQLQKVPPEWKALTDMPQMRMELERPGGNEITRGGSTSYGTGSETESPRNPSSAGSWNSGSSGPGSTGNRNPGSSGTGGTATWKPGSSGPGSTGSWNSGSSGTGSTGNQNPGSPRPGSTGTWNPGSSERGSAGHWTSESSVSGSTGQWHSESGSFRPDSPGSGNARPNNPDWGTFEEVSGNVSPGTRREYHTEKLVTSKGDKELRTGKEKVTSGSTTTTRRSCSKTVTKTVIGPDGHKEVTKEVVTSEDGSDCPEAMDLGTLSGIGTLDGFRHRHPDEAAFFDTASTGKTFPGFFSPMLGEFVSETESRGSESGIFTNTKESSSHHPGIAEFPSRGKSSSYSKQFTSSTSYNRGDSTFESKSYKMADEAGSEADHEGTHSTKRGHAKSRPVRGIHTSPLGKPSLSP
T1 sequence (P02675 31-491): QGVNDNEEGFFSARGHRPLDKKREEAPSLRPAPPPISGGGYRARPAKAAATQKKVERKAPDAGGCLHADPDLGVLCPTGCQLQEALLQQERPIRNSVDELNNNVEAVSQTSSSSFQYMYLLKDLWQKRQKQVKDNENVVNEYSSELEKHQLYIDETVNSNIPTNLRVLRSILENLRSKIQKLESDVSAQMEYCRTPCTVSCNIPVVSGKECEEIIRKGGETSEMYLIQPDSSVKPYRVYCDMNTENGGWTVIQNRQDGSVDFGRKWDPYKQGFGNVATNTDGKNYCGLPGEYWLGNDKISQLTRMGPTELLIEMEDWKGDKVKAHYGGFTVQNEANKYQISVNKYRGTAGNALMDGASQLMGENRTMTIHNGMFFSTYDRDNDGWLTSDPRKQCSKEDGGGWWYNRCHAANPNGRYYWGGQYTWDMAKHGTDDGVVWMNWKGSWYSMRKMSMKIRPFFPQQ
T1 sequence (P02679 27-437 isoform P02679-2 limits assumed): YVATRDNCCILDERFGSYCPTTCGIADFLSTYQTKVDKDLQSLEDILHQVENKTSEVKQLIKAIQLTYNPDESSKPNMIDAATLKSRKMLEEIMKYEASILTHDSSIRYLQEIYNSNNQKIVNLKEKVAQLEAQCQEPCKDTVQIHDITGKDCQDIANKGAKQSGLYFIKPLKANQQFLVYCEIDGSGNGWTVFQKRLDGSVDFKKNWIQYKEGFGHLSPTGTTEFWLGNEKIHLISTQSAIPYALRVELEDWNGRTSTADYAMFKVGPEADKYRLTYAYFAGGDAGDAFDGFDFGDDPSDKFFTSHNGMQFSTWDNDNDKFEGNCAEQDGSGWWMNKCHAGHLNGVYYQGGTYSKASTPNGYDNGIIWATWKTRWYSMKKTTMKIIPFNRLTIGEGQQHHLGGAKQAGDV
Procedure: The absorption at 405 nm is immediately measured (base value) and exactly after 5 min, if the reaction is performed at room temperature (23° C.). If the reaction is performed at 37° C., the second value is measured after 2 min. A microtiterplate reader (Milenia, DPC, Los Angeles, USA) is used. The increase in absorption (ΔA) is determined and the results are standardized against a pooled plasma of known, preferably of 100% of norm, fibrinogen-activity (Table 1).
(§1) 25 μl P-Pool or P-Pool supplemented with 8.6 mM (3.2 g/l) EDTA were incubated with 25 μl 0-89 mM chloramine-T® in PBS for 60 min at RT. Then the FIATA and the FIFTA were performed. For the FIATA, 25 μl PBS were added and the absorbance at 405 nm was determined (base value). 50 μl 4.4 mM vancomycin in PBS were added and after 1 min (RT) the absorbance at 405 nm was determined again (Table 1). […] 100% control=P-Pool without oxidant.
(§2) 25 μl P-Pool was incubated with 25 μl PBS or with 25 μl 2 mM CT in PBS. After 60 min RT, 25 μl 0-172 mM EDTA in PBS was added. After 5 min RT the FIATA and the FIFTA were performed as indicated in 2.7.

fibrinogen [2] = experiment: FIATA (vancomycin reactivity) of chloramine-T oxidized / EDTA-supplemented plasma; details: EDTA at concentrations of 50-100 mM
Procedure: To 25 μl plasma 50 μl PBS are added and the absorbance (405 nm) is determined (base value). Then 50 μl 4.4 mM vancomycin in PBS are added. The absorbance at 405 nm is determined after 2 min, if the reaction is performed at room temperature (23° C.). If the reaction is performed at 37° C., the second value is determined after 1 min. A microtiterplate reader (Milenia, DPC, Los Angeles, USA) is used. The increase in absorption (ΔA) is determined and the results are standardized against a pooled plasma of known, preferably of 100% of norm, fibrinogen-concentration, and against 0.9% NaCl (zero-value of turbidity) (Table 2).
as §1, §2

[3] = tested on: thrombin/fibrinogen interaction; experiment: Inhibition of fibrin generation by arginine (FIFTA turbidity); details: for IC50: read-out: arginine conc. at halfmaximal turbidity increase
Procedure: The turbidity increase was calculated by subtracting the basal absorbance from the absorbance generated by thrombin (addition of 100 μl FIFTA-reagent without thrombin results into an approximate increase of absorbance of 100 mA compared to the absorbance of 50 μl sample). c) 50 μl P-Pool were incubated with 100 μl FIFTA-reagent.

fibrin = molecular target: T2, fibrin (Homo sapiens, UniProt P02671+P02675+P02679); experiment: Fibrin dissolution by arginine
T2 construct: The FIFTA imitates the physiological conversion of fibrinogen to fibrin; from tissue; host or cells: pooled citrated patient plasma (P-Pool), clotted in the well with thrombin reagent for 30 min
T2 sequence (P02671 36-629 limits assumed): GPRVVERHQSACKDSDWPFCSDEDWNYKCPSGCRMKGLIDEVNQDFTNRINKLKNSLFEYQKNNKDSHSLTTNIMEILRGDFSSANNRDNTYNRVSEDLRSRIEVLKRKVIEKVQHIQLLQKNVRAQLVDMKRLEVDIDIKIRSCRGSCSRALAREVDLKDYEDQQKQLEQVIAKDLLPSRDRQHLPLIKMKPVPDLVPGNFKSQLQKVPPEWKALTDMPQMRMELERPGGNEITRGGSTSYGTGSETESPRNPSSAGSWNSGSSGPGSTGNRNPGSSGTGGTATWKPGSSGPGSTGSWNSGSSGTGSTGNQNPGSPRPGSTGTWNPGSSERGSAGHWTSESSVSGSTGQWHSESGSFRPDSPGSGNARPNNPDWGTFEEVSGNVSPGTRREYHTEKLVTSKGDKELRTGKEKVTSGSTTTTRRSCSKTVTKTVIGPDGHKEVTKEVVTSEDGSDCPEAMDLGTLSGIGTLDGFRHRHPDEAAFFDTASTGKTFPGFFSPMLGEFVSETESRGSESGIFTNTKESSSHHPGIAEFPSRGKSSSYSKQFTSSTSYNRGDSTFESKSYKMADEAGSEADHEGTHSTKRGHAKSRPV
T2 sequence (P02675 45-491 limits assumed): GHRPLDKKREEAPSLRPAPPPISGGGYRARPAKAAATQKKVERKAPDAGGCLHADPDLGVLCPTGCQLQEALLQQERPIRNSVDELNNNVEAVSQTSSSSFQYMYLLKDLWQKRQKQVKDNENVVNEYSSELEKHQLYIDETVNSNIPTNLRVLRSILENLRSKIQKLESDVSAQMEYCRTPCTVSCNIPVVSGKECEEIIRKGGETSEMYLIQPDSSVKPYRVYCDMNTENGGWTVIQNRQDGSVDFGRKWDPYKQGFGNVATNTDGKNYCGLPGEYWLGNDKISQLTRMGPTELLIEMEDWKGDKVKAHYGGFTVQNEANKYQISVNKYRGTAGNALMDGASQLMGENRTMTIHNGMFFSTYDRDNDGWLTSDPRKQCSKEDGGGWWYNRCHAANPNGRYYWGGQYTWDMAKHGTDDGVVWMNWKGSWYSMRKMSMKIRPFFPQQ
T2 sequence (P02679 27-437 isoform P02679-2 limits assumed): T1 sequence (P02679 27-437 isoform P02679-2 limits assumed)
Procedure: 50 μl P-Pool were incubated with 100 μl FIFTA-reagent.

heparin = experiment: Neutralization of heparin in plasma by Polybrene in the FIFTA
Procedure: P-Pool supplemented with 0-80 IU/ml heparin was analyzed in the FIFTA. The FIFTA-reagent contained 200 mIU/ml thrombin, 6% BSA-PBS and 0, 50, 100, 200, 400, 800, or 1600 μg/ml Polybrene® (PB, hexadimethrinebromide).
25 μl 0-75 mg/ml Polybrene® in aqua dest. were added to 50 μl P-Pool or to 50 μl P-Pool, that had been supplemented with 100 IU/ml heparin. Then 100 μl 200 miU/ml thrombin in 6% BSA-PBS, 400 μg/ml PB were added and the increase in absorbance at 405 nm was determined.
50 μl P-Pool with 0-80 IU/ml heparin were incubated with 100 μl FIFTA-reagent without thrombin, that contained 0, 400, 800, or 1600 μg/ml PB. The increase in absorbance at 405 nm was determined.

thrombin = molecular target: T3, thrombin (Bos taurus, UniProt P00735); experiment: Inhibitory time point 50% (ITP50) of 10 IU/ml heparin-thrombin interaction; details: 133 mIU/ml thrombin, RT
T3 construct: 100 μl 200 mIU/ml thrombin in 6% BSA-PBS (without Polybrene®)
Procedure: 50 μl P-Pool were incubated with 100 μl 200 miU/ml thrombin in 6% BSA-PBS (without Polybrene®). At 0 min (prior to thrombin addition) and 0.5-11 min reaction time (at RT) 10 μl 160 IU/ml heparin in 6% BSA-PBS was added (final heparin conc. in plasma+thrombin reagent=10 IU/ml; this heparin conc. increased the absorbance by 20 mA; all test results were corrected by this heparin induced turbidity increase). The turbidity increase at 405 nm was determined immediately after each heparin addition step and as a function of incubation time.
To determine the heparin addition time point (at RT) that is needed to decrease the 5 min, 10 min, 15 min or 20 min turbidity increase by 50% (inhibitory time point 50%=ITP), 50 μl P-Pool were incubated with 100 μl 200 mIU/ml thrombin in 6% BSA-PBS (without Polybrene®). After 0 s (prior to thrombin addition) and 10-140 s (in 10 s intervals) 10 μl 160 IU/ml heparin in 6% BSA-PBS were added. The turbidity increase at 405 nm as a function of incubation time (3-20 min) was determined.

decrease of FIFTA activity (fibrinogen [1]; EDTA at concentrations >5 mmol/l, 0 mM or 2 mM oxidized samples): about 50%
FIFTA decrease (fibrinogen [1]; addition of 8.6 mM EDTA, independent of oxidant concentration): about 50%
Compound: O=C(O)CN(CCN(CC(=O)O)CC(=O)O)CC(=O)O [EDTA]
decrease of FIATA result (fibrinogen [2]): 10-20%

Compound: N=C(N)NCCC[C@H](N)C(=O)O [arginine]
increase of the turbidity increase ([3]; 16 mM arginine): about 20%
final arginine conc. that completely inhibits turbidity increase ([3]; arginine acts in the first 4 min (RT) of thrombin/fibrinogen interaction): ≥ 250 mM
time window in which arginine can inhibit turbidity increase ([3]; final arginine conc. ≧250 mM, RT (FIG. 16d)): ≤ 3 min
IC50 ([3]; added at the 7 min reaction time point): 94 mM
IC50 ([3]; arginine acts since the begin of thrombin action): 62.5 mM
time to halfmaximal decrease of ΔA (fibrin; 477 mM arginine added at 12 min or 30 min reaction time point, RT): 30 min
maximal ΔA that remains refractory to clearing (fibrin; arginine incubation >100 min): about 30%

Compound: hexadimethrinebromide [Polybrene®]
plasmatic heparin concentration neutralized (heparin; 400 μg/ml Polybrene in FIFTA-reagent): up to 20 IU/ml
PB needed for neutralization of 1 part of 100 IU/ml heparinized plasma (heparin; 1 part PB, includes 400 μg/ml PB of FIFTA-reagent): 26 mg/mL
PB concentration that completely antagonizes 100 IU/ml heparin (heparin; 25 μl PB added to 50 μl plasma): ≥ 50 mg/mL

time in which about 50% of plasmatic fibrinogen is converted (thrombin): approximately 30 seconds
Compound: thrombin

— patent US7741124B2, “Detection procedures for fibrinogen and/or fibrinogen derivatives” (priority 2003, dated 2010)
